# Values of other authors in paper PMC7394103 (Frontiers in Pharmacology, 2020).
# Molecular target: JNK3
# Design: method as in Schepetkin et al., 2019
# Conditions: previously reported binding affinity; ref Schepetkin et al., 2019; cited from earlier work
smiles,measurement,value
"O=C1c2ccccc2-n2c1nc1ccccc1c2=O [TRYP, indolo[2,1-b]quinazolin-6,12-dione]",JNK3 Kd,No binding
